Test system: patients with seasonal allergic rhinitis (SAR)
Test: MP 428 study: individual symptom severity scores (runny nose, itchy nose, sneezing, congestion; 0-3 scale)
Format: in vivo, human
Conditions: Intent-to-Treat Population
Method: A two-week, randomized, double-blind study, which evaluated the effects of the co-administration of ASTELIN® (azelastine hydrochloride (HCl)) and FLONASE® (fluticasone propionate) compared to either product alone in patients with seasonal allergic rhinitis (SAR) was conducted during the 2006 Texas mountain cedar season. After a 5-day placebo lead-in period, 151 patients with moderate-to-severe allergic rhinitis symptoms were randomized to either: (1) (49 total patients) ASTELIN® (azelastine hydrochloride (HCl)) plus placebo saline nasal spray 2 sprays per nostril, 15 minutes apart, twice daily (AM & PM); (2) (50 total patients) FLONASE® (fluticasone propionate) plus placebo saline nasal spray, 2 sprays per nostril, 15 minutes apart, once daily (AM) and two sessions of placebo saline nasal spray, 2 sprays per nostril, 15 minutes apart (PM); or (3) (52 total patients) the co-administration of ASTELIN® (azelastine hydrochloride (HCl)) 2 sprays per nostril plus FLONASE® (fluticasone propionate) 2 sprays per nostril (AM), 15 minutes apart, and ASTELIN® (azelastine hydrochloride (HCl)) 2 sprays per nostril plus placebo saline nasal spray, 15 minutes apart, (PM) for a 2-week double-blind treatment period.
The primary efficacy variable was the change from baseline in the Total Nasal Symptom Score (TNSS), which comprised sneezing, itchy nose, runny nose, and nasal congestion (individual symptoms scores were assigned a value between 0 and 3, where 0=no symptoms and 3=severe symptoms). This study was not statistically designed to assess the differences between ASTELIN® and FLONASE®.
The results of the clinical trial are summarized and presented in Appendix A hereinbelow and in FIGS. 1-6. […] FIGS. 2-5 show the mean improvement in severity score (0-3 scale) from baseline for the symptoms of runny nose, itchy nose, sneezing and congestion, respectively.

`CCC(=O)O[C@]1(C(=O)SCF)[C@H](C)C[C@H]2[C@@H]3C[C@H](F)C4=CC(=O)C=C[C@]4(C)[C@@]3(F)[C@@H](O)C[C@@]21C` [Fluticasone, fluticasone propionate] was tested. Which “Change from Baseline in AM and PM Combined Nasal Symptom Score: Congestion, LS Mean” value (Day 9) did it give?
The value was −1.19.

And the “Change from Baseline in AM and PM Combined Nasal Symptom Score: Congestion, Mean” value (Day 9)?
Its value is −1.22.

And the “Change from Baseline in AM and PM Combined Nasal Symptom Score: Congestion, Median” value (Day 9)?
The value was −1.27.

What about the “Change from Baseline in AM and PM Combined Nasal Symptom Score: Itchy Nose, LS Mean” value (Day 9) of the same compound?
Its value is −1.40.

What about the “Change from Baseline in AM and PM Combined Nasal Symptom Score: Itchy Nose, Mean” value (Day 9) of the same compound?
The value was −1.35.

What about the “Change from Baseline in AM and PM Combined Nasal Symptom Score: Itchy Nose, Median” value (Day 9) of the same compound?
The value was −1.30.

What about the “Change from Baseline in AM and PM Combined Nasal Symptom Score: Runny Nose, LS Mean” value (Day 9) of the same compound?
The value was −1.18.

And the “Change from Baseline in AM and PM Combined Nasal Symptom Score: Runny Nose, Mean” value (Day 9)?
Its value is −1.21.

And the “Change from Baseline in AM and PM Combined Nasal Symptom Score: Runny Nose, Median” value (Day 9)?
The value was −1.00.

And the “Change from Baseline in AM and PM Combined Nasal Symptom Score: Sneezing, LS Mean” value (Day 9)?
The value was −1.40.

And the “Change from Baseline in AM and PM Combined Nasal Symptom Score: Sneezing, Mean” value (Day 9)?
The value was −1.29.

And the “Change from Baseline in AM and PM Combined Nasal Symptom Score: Sneezing, Median” value (Day 9)?
Its value is −1.40.

And the “Percent Change from Baseline in AM and PM Combined Nasal Symptom Score: Congestion, LS Mean” value (“Percent Change … Congestion, LS Mean” below) (Day 9)?
The value was −22.17%.

And the “Percent Change from Baseline in AM and PM Combined Nasal Symptom Score: Congestion, Mean” value (from here on “Percent Change from Baseline … Congestion, Mean”) (Day 9)?
Its value is −22.28%.

And the “Percent Change from Baseline in AM and PM Combined Nasal Symptom Score: Congestion, Median” value (from here on “Percent Change … Congestion, Median”) (Day 9)?
Its value is −24.05%.

What about the “Percent Change from Baseline in AM and PM Combined Nasal Symptom Score: Itchy Nose, LS Mean” value (from here on “Percent Change … Itchy Nose, LS Mean”) (Day 9) of the same compound?
The value was −29.96%.

What about the “Percent Change from Baseline in AM and PM Combined Nasal Symptom Score: Itchy Nose, Mean” value (shortened to “Percent Change from Baseline … Itchy Nose, Mean”) (Day 9) of the same compound?
The value was −28.73%.

And the “Percent Change from Baseline in AM and PM Combined Nasal Symptom Score: Itchy Nose, Median” value (shortened to “Percent Change … Itchy Nose, Median”) (Day 9)?
The value was −31.23%.

And the “Percent Change from Baseline in AM and PM Combined Nasal Symptom Score: Runny Nose, LS Mean” value (shortened to “Percent Change … Runny Nose, LS Mean”) (Day 9)?
The value was −18.79%.

And the “Percent Change from Baseline in AM and PM Combined Nasal Symptom Score: Runny Nose, Mean” value (“Percent Change from Baseline … Runny Nose, Mean” below) (Day 9)?
Its value is −19.22%.

What about the “Percent Change from Baseline in AM and PM Combined Nasal Symptom Score: Runny Nose, Median” value (“Percent Change … Runny Nose, Median” for short) (Day 9) of the same compound?
The value was −16.67%.

What about the “Percent Change from Baseline in AM and PM Combined Nasal Symptom Score: Sneezing, LS Mean” value (from here on “Percent Change from Baseline … Sneezing, LS Mean”) (Day 9) of the same compound?
Its value is −29.73%.

And the “Percent Change from Baseline in AM and PM Combined Nasal Symptom Score: Sneezing, Mean” value (shortened to “Percent Change from Baseline … Sneezing, Mean”) (Day 9)?
Its value is −28.22%.

What about the “Percent Change from Baseline in AM and PM Combined Nasal Symptom Score: Sneezing, Median” value (“Percent Change from Baseline … Sneezing, Median” for short) (Day 9) of the same compound?
Its value is −32.58%.

And the “Change from Baseline in AM and PM Combined Nasal Symptom Score: Congestion, LS Mean” value (Day 10)?
Its value is −1.34.

What about the “Change from Baseline in AM and PM Combined Nasal Symptom Score: Congestion, Mean” value (Day 10) of the same compound?
Its value is −1.39.

What about the “Change from Baseline in AM and PM Combined Nasal Symptom Score: Congestion, Median” value (Day 10) of the same compound?
Its value is −1.50.

And the “Change from Baseline in AM and PM Combined Nasal Symptom Score: Itchy Nose, LS Mean” value (Day 10)?
Its value is −1.21.

And the “Change from Baseline in AM and PM Combined Nasal Symptom Score: Itchy Nose, Mean” value (Day 10)?
The value was −1.19.

And the “Change from Baseline in AM and PM Combined Nasal Symptom Score: Itchy Nose, Median” value (Day 10)?
Its value is −1.00.

And the “Change from Baseline in AM and PM Combined Nasal Symptom Score: Runny Nose, LS Mean” value (Day 10)?
The value was −1.52.

What about the “Change from Baseline in AM and PM Combined Nasal Symptom Score: Runny Nose, Mean” value (Day 10) of the same compound?
The value was −1.54.

And the “Change from Baseline in AM and PM Combined Nasal Symptom Score: Runny Nose, Median” value (Day 10)?
Its value is −1.45.

What about the “Change from Baseline in AM and PM Combined Nasal Symptom Score: Sneezing, LS Mean” value (Day 10) of the same compound?
Its value is −1.57.

What about the “Change from Baseline in AM and PM Combined Nasal Symptom Score: Sneezing, Mean” value (Day 10) of the same compound?
The value was −1.50.

What about the “Change from Baseline in AM and PM Combined Nasal Symptom Score: Sneezing, Median” value (Day 10) of the same compound?
The value was −1.58.

What about the “Percent Change … Congestion, LS Mean” value (Day 10) of the same compound?
The value was −24.97%.

And the “Percent Change from Baseline … Congestion, Mean” value (Day 10)?
Its value is −25.31%.

And the “Percent Change … Congestion, Median” value (Day 10)?
The value was −27.27%.

And the “Percent Change … Itchy Nose, LS Mean” value (Day 10)?
The value was −23.04%.

What about the “Percent Change from Baseline … Itchy Nose, Mean” value (Day 10) of the same compound?
The value was −22.79%.

What about the “Percent Change … Itchy Nose, Median” value (Day 10) of the same compound?
The value was −18.99%.

And the “Percent Change … Runny Nose, LS Mean” value (Day 10)?
The value was −26.05%.

And the “Percent Change from Baseline … Runny Nose, Mean” value (Day 10)?
The value was −26.39%.

And the “Percent Change … Runny Nose, Median” value (Day 10)?
The value was −29.13%.

And the “Percent Change from Baseline … Sneezing, LS Mean” value (Day 10)?
The value was −31.65%.

And the “Percent Change from Baseline … Sneezing, Mean” value (Day 10)?
The value was −31.17%.

And the “Percent Change from Baseline … Sneezing, Median” value (Day 10)?
Its value is −33.33%.

And the “Change from Baseline in AM and PM Combined Nasal Symptom Score: Congestion, LS Mean” value (Day 11)?
The value was −1.22.

What about the “Change from Baseline in AM and PM Combined Nasal Symptom Score: Congestion, Mean” value (Day 11) of the same compound?
Its value is −1.28.

What about the “Change from Baseline in AM and PM Combined Nasal Symptom Score: Congestion, Median” value (Day 11) of the same compound?
The value was −1.27.

What about the “Change from Baseline in AM and PM Combined Nasal Symptom Score: Itchy Nose, LS Mean” value (Day 11) of the same compound?
The value was −1.33.

And the “Change from Baseline in AM and PM Combined Nasal Symptom Score: Itchy Nose, Mean” value (Day 11)?
The value was −1.29.

What about the “Change from Baseline in AM and PM Combined Nasal Symptom Score: Itchy Nose, Median” value (Day 11) of the same compound?
The value was −1.08.

What about the “Change from Baseline in AM and PM Combined Nasal Symptom Score: Runny Nose, LS Mean” value (Day 11) of the same compound?
Its value is −1.51.

What about the “Change from Baseline in AM and PM Combined Nasal Symptom Score: Runny Nose, Mean” value (Day 11) of the same compound?
Its value is −1.54.

What about the “Change from Baseline in AM and PM Combined Nasal Symptom Score: Runny Nose, Median” value (Day 11) of the same compound?
The value was −1.42.

And the “Change from Baseline in AM and PM Combined Nasal Symptom Score: Sneezing, LS Mean” value (Day 11)?
The value was −1.78.

And the “Change from Baseline in AM and PM Combined Nasal Symptom Score: Sneezing, Mean” value (Day 11)?
Its value is −1.66.

What about the “Change from Baseline in AM and PM Combined Nasal Symptom Score: Sneezing, Median” value (Day 11) of the same compound?
The value was −1.83.

And the “Percent Change … Congestion, LS Mean” value (Day 11)?
The value was −22.54%.

And the “Percent Change from Baseline … Congestion, Mean” value (Day 11)?
Its value is −23.45%.

What about the “Percent Change … Congestion, Median” value (Day 11) of the same compound?
Its value is −24.05%.

And the “Percent Change … Itchy Nose, LS Mean” value (Day 11)?
Its value is −26.56%.

And the “Percent Change from Baseline … Itchy Nose, Mean” value (Day 11)?
Its value is −25.70%.

What about the “Percent Change … Itchy Nose, Median” value (Day 11) of the same compound?
The value was −27.36%.

And the “Percent Change … Runny Nose, LS Mean” value (Day 11)?
The value was −31.56%.

And the “Percent Change from Baseline … Runny Nose, Mean” value (Day 11)?
Its value is −31.74%.

And the “Percent Change … Runny Nose, Median” value (Day 11)?
The value was −33.33%.

What about the “Percent Change from Baseline … Sneezing, LS Mean” value (Day 11) of the same compound?
Its value is −35.11%.

And the “Percent Change from Baseline … Sneezing, Mean” value (Day 11)?
Its value is −33.52%.

What about the “Percent Change from Baseline … Sneezing, Median” value (Day 11) of the same compound?
Its value is −36.05%.

And the “Change from Baseline in AM and PM Combined Nasal Symptom Score: Congestion, LS Mean” value (Day 12)?
Its value is −1.41.

What about the “Change from Baseline in AM and PM Combined Nasal Symptom Score: Congestion, Mean” value (Day 12) of the same compound?
The value was −1.49.

What about the “Change from Baseline in AM and PM Combined Nasal Symptom Score: Congestion, Median” value (Day 12) of the same compound?
The value was −1.55.

What about the “Change from Baseline in AM and PM Combined Nasal Symptom Score: Itchy Nose, LS Mean” value (Day 12) of the same compound?
The value was −1.50.

And the “Change from Baseline in AM and PM Combined Nasal Symptom Score: Itchy Nose, Mean” value (Day 12)?
The value was −1.48.

What about the “Change from Baseline in AM and PM Combined Nasal Symptom Score: Itchy Nose, Median” value (Day 12) of the same compound?
The value was −1.17.

What about the “Change from Baseline in AM and PM Combined Nasal Symptom Score: Runny Nose, LS Mean” value (Day 12) of the same compound?
Its value is −1.54.

What about the “Change from Baseline in AM and PM Combined Nasal Symptom Score: Runny Nose, Mean” value (Day 12) of the same compound?
The value was −1.58.

And the “Change from Baseline in AM and PM Combined Nasal Symptom Score: Runny Nose, Median” value (Day 12)?
The value was −1.35.

What about the “Change from Baseline in AM and PM Combined Nasal Symptom Score: Sneezing, LS Mean” value (Day 12) of the same compound?
The value was −1.68.

What about the “Change from Baseline in AM and PM Combined Nasal Symptom Score: Sneezing, Mean” value (Day 12) of the same compound?
The value was −1.54.

What about the “Change from Baseline in AM and PM Combined Nasal Symptom Score: Sneezing, Median” value (Day 12) of the same compound?
The value was −1.80.
